In assay [1] the target is Metabotropic glutamate receptor 2 (Homo sapiens) (UniProt Q14416). In words: Activity at mGluR2 receptor at 100 uM.
Assay [2] has as its target Metabotropic glutamate receptor 5 (Homo sapiens) (UniProt P41594). In words: Activity at mGluR5 receptor at 100 uM.
The target of assay [3] is Metabotropic glutamate receptor 1 (Homo sapiens) (UniProt Q13255). Description: Activity at mGluR1 receptor at 100 uM.
Assay [4] has as its target Metabotropic glutamate receptor 3 (Homo sapiens) (UniProt Q14832). Description: Activity at mGluR3 receptor at 100 uM.
Assay [5] has as its target Metabotropic glutamate receptor 7 (Rattus norvegicus, UniProt P35400). Description: Agonist activity at rat mGluR7 receptor expressed HEK293 cells assessed as effect on inositol phosphate production. The assay is classed as functional, cell-based.
Assay [6] has as its target Metabotropic glutamate receptor 8 (Rattus norvegicus, UniProt P70579). Description: Agonist activity at rat mGluR8 receptor expressed HEK293 cells assessed as effect on inositol phosphate production. The assay is classed as functional, cell-based.
In assay [7] the target is Metabotropic glutamate receptor 6 (Rattus norvegicus, UniProt P35349). Description: Agonist activity at rat mGluR6 receptor expressed HEK293 cells assessed as effect on inositol phosphate production. The assay is classed as functional, cell-based.
Assay [8] has as its target Metabotropic glutamate receptor 4 (Rattus norvegicus, UniProt P31423). In words: Agonist activity at rat mGluR4 receptor expressed HEK293 cells assessed as effect on inositol phosphate production. The assay is classed as functional, cell-based.

Our source for the Activity and EC50 values is ChEMBL document CHEMBL1148786, “L-(+)-2-Amino-4-thiophosphonobutyric acid (L-thioAP4), a new potent agonist of group III metabotropic glutamate receptors: increased distal acidity affords enhanced potency” (J Med Chem, 2007).

Active and inactive are the calls of the source. No cut-off for these calls is given here. A value given as a limit tells only on which side of the number the result lay.

For orientation: EC50 means the concentration giving half of the maximal effect.

Metabotropic glutamate receptor 1 (Homo sapiens), sequence (Q13255 19-1194 limits assumed): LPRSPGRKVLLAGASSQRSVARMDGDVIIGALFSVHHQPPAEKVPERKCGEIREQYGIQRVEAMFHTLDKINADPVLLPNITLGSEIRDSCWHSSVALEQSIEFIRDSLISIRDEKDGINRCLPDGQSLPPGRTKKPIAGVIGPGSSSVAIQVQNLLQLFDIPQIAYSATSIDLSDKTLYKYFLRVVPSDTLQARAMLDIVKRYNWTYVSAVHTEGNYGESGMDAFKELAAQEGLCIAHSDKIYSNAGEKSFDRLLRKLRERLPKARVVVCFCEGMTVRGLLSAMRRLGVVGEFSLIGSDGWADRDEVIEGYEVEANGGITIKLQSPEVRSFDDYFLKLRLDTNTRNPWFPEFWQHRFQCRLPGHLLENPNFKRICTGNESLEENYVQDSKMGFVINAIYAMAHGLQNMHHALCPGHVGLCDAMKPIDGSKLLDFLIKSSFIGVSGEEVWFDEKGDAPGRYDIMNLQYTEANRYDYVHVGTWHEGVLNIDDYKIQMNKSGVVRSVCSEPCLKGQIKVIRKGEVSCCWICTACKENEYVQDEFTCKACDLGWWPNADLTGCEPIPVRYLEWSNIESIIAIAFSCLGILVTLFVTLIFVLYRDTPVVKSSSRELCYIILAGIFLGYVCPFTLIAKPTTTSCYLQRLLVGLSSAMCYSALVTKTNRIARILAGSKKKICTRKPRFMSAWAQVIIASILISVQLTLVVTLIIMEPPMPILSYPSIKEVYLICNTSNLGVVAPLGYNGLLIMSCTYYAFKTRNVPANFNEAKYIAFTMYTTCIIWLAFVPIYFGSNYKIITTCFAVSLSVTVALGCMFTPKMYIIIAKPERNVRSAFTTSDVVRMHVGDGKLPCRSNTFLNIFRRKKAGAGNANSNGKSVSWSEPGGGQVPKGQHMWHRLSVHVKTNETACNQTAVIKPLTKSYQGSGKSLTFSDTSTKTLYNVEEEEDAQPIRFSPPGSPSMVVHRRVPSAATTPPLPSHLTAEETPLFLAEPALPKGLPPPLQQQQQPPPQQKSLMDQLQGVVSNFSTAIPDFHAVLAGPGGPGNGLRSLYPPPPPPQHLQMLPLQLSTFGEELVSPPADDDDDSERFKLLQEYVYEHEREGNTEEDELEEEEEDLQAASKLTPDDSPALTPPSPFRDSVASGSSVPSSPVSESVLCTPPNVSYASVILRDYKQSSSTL
Metabotropic glutamate receptor 5 (Homo sapiens), sequence (P41594 21-1212 limits assumed): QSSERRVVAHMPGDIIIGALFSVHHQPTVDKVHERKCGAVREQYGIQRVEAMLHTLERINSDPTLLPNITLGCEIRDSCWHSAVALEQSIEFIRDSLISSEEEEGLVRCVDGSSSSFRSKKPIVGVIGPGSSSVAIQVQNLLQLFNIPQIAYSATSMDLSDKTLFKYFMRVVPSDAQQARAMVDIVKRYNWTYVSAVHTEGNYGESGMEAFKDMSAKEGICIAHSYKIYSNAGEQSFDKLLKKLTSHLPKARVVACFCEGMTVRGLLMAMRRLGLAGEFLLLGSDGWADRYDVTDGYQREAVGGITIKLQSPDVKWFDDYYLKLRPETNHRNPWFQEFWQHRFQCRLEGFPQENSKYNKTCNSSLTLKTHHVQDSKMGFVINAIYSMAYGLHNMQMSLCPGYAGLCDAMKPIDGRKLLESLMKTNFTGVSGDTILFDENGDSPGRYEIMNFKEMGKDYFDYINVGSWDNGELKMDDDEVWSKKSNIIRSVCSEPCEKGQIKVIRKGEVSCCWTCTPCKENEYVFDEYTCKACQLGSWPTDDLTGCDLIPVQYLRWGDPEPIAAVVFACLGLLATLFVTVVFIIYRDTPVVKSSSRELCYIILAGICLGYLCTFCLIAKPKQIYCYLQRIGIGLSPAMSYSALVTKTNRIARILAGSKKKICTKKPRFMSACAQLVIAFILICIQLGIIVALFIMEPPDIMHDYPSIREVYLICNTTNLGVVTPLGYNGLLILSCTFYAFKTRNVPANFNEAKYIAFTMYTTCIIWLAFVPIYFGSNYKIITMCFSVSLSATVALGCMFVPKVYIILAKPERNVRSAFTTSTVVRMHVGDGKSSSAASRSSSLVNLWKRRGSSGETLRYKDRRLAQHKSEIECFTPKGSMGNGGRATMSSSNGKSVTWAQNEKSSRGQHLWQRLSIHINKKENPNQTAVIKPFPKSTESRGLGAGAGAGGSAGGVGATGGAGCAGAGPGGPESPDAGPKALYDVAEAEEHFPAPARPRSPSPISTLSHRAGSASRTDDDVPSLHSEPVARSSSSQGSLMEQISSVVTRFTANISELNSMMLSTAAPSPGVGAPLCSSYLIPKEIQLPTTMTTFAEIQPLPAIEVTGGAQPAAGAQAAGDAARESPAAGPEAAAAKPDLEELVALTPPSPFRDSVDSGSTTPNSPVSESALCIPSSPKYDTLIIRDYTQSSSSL
Metabotropic glutamate receptor 2 (Homo sapiens), sequence (Q14416 19-872 limits assumed): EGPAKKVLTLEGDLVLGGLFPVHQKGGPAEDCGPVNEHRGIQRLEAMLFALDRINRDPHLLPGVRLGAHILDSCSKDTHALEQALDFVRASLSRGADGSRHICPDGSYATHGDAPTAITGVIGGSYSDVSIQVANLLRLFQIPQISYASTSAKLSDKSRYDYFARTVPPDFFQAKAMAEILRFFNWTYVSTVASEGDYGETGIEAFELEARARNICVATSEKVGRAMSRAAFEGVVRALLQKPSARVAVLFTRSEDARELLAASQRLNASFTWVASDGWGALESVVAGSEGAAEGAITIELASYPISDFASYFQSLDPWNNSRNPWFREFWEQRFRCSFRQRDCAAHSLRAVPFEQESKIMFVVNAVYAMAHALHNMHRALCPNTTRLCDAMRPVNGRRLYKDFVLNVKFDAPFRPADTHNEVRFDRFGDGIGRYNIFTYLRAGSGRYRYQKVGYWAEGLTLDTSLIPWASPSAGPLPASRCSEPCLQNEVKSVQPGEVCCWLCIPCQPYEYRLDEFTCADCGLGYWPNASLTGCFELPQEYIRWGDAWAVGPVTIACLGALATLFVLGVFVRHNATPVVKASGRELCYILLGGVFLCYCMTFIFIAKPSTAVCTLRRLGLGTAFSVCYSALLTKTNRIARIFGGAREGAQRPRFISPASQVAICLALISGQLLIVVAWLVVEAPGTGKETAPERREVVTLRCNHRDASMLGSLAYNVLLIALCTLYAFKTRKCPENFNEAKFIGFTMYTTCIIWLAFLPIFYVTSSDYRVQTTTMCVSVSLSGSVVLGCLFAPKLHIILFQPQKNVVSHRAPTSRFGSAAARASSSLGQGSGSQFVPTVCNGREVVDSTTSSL
Metabotropic glutamate receptor 3 (Homo sapiens), sequence (Q14832 23-879 limits assumed): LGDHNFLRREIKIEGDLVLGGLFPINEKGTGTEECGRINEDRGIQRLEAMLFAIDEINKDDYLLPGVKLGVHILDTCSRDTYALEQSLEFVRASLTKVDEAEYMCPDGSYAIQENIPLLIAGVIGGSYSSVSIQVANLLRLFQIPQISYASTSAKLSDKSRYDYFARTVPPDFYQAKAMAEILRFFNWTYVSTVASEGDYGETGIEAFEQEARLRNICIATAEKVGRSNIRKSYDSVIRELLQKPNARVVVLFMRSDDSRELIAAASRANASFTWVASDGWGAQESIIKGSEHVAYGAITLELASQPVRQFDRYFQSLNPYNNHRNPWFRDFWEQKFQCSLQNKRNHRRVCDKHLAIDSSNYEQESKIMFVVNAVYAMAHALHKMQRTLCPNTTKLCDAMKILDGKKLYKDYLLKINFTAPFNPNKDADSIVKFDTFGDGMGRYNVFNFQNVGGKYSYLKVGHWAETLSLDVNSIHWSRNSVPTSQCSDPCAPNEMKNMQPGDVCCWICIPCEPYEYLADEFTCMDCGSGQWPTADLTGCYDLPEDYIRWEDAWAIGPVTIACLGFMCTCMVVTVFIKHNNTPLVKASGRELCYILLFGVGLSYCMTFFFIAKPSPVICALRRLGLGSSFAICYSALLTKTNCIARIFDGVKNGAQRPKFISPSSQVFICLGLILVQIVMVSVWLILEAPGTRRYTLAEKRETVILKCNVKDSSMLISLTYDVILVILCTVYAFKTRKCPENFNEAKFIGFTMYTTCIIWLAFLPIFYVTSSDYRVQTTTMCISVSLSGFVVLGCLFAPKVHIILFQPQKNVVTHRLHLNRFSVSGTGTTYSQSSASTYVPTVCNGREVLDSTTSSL
Metabotropic glutamate receptor 8, sequence (P70579 whole entry): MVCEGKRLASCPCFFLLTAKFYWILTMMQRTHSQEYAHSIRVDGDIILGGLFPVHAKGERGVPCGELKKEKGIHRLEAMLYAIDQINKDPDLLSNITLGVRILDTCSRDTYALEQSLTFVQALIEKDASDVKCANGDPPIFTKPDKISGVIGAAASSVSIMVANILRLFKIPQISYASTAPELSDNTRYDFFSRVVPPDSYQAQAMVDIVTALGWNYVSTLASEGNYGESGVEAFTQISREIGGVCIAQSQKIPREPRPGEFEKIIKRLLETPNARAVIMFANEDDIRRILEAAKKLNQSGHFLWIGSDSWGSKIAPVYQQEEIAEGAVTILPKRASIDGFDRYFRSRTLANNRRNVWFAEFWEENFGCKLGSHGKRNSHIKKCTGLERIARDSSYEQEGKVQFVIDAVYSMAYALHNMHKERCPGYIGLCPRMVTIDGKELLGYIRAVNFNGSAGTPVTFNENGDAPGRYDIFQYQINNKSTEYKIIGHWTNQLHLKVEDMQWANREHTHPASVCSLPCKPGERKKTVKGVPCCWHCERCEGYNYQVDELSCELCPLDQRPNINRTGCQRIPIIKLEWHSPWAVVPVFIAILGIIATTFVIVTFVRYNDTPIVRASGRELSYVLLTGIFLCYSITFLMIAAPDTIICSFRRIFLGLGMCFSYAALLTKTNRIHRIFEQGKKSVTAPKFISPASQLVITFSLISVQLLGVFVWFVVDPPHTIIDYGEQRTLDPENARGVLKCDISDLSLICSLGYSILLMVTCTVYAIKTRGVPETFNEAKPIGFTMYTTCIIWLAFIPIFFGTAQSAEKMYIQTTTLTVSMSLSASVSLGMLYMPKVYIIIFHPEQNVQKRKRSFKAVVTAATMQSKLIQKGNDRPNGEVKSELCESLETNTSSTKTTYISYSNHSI

On to `N[C@@H](CCP(O)(O)=S)C(=O)O`, for which the result in assay [1], in assay [2], in assay [3] and in assay [4] was inactive.

For the compound `N[C@@H](CCP(=O)(O)O)C(=O)O`, the outcome in assay [1], in assay [2], in assay [3] and in assay [4] was inactive.

As to `N[C@@H](CC[PH](=O)O)C(=O)O`, the EC50 is more than 500 µM in assay [5], 1.72 µM in assay [6], 27.8 µM in assay [7] and 4.05 µM in assay [8]. For the same compound, the result in assay [1], in assay [2], in assay [3] and in assay [4] was inactive.

As for `CP(=O)(O)CC[C@H](N)C(=O)O` [PHOSPHINOTHRICIN], the EC50 in assay [5] is more than 500 µM; in assay [6], 412 µM; in assay [7], more than 500 µM; in assay [8] it was 1100 µM. The result in assay [1], in assay [2], in assay [3] and in assay [4] was inactive.
